Data as given in US8986712B2, “Peptides derived from HIV-1 gp41 transmembrane domain for t-immunomodulation” (Yeda Research and Development Co., Ltd., priority 2009, dated 2015).
Ends that are not written are not given here.

How the values were obtained:
[1] = test system: T cells activated by PMA/ionomycin; test: T-cell activation induced by PMA/ionomycin; type: cell-based, mice
Description: (§1) For some experiments, T cells were activated with immobilized anti-CD3 antibodies (Kaleeba et al., 1998, Int. Immunol. 10, 453-461) or PMA/ionomycin as described (Wang et al., 2002 Clin. Immunol. 105, 199-207). After 72 hours, at 37° C. in a 7.5% CO2 humidified atmosphere, the T-cells were pulsed with 1 μCi (H^3) thymidine, with a specific activity of 5.0 Ci/mmol, for 7 hours, and (H^3) thymidine incorporation was measured using a 96-well plate beta-counter. The mean cpm±Standard Error was calculated for each triplicate or quadruplicate. The results of T-cell proliferation experiments are shown as the percentage of T-cell proliferation inhibition triggered by the antigen in the absence of gp41 TMD peptides.
PMA/ionomycin activates the T cell downstream of the membrane regardless of the presence or absence of the TCR.

[2] = test system: T-cell line specific to MOG p35-55; test: T-cell proliferation induced by MOG 35-55 peptide and APC (H3-thymidine uptake); type: cell-based, mice; details: for cell survival in culture versus PBS control: T cells incubated with peptide
Description: T-cells were plated onto round 96-well plates in medium containing RPMI-1640 supplemented with 2.5% fetal calf serum (FCS), 100 U/ml penicillin, 100 μg/ml streptomycin, 50 μM 2β-mercaptoethanol, and 2 mM L-glutamine. 12×10^4 cells of the T-cell line specific to MOG p35-55, 5×10^5 irradiated (3000 rad) spleen cells (APC), and 10 μg/ml of MOG p35-55 were added to each well. In addition, peptides corresponding to the gp41 TMD region were added. Each determination was made at least in triplicate.
In order to exclude interaction between the examined peptides and the MOG p35-55 antigen, the MOG p35-55 antigen was initially added to the APCs in a test tube, and in a second test tube, the examined peptides were added to the T-cells. After 1 hour, the APCs and the T-cells were mixed and incubated for 72 h in a 96 well round bottom plate.
as §1
Lymph node cells were prepared from MOG 35-55/CFA immunized mice and their T cell response to the MOG 35-55 peptide was studied. T-cells were activated with the MOG 35-55 peptide and APC in the presence of gp41 TMD and TM11-19 (GLVGLRIVF; SEQ ID NO: 6) in three different concentrations (5, 25 and 50 μg/ml) and the proliferative responses was assayed. The T cell line proliferative response was determined after 3 days of incubation using a H3-thymidine uptake assay. […] The uninhibited T-cell proliferative responses were 9382±891 cpm.

CD3 molecules = test: Co-localization of NBD-labeled peptides with CD3/TCR molecules in T cells (confocal fluorescence microscopy); type: cell-based, mice; details: NBD-conjugated peptide 2 μM, 1 h at 37° C., MOG35-55 T-cells
Description: Resting MOG35-55 T-cells or after activation for 72 h with MOG35-55 and APC were blocked with 1% BSA at room temperature to block non-specific binding. After 30 min the cells were washed and divided into aliquots containing 100,000 cells per 100 μl, and either gp41 TMD or a control membrane-binding amphipathic peptide (AMP-scr) was added (final concentration of 2 μM) for 1 h at 37° c. The cells were then washed and labeled with the tested antibody for 25 min at RT followed by biotin-conjugated anti-hamster IgG 25 min at RT and Streptavidin PE-Cy-5 10 min at RT (eBioscience San-Diego Calif., USA). Anti-hamster IgG followed by Streptavidin-Cy-5 served as a measure of non-specific binding amphipathic (AMP) peptide served as low TCR affinity control. The cells were analyzed by confocal fluorescence microscopy using Lab-Tek 8 chambers cover-glass (nunc) with living cells. The labeled cell samples were observed under a fluorescence confocal microscope. PE-Cy-5 excitation was done with HeNe laser 633 nm (emission data was collected with filter BA660IF, 660 nm long pass). NBD excitation was done with Ar laser 488 nm (emission data was collected from 505-525 nm). The co-localization percentage was quantified suing the “Simple PCI” software, and calculated as: (Co-localization fluorescence/NBD fluorescence)×100=co-localization percentage. […]

[3] = test system: T-cells activated with anti-CD3; test: T-cell activation induced by mitogenic anti-CD3 antibodies; type: cell-based, mice; details: 1 μg/ml anti-CD3 and APC; 50 μg/ml peptide
Description: as §1
Mitogenic anti-CD3 antibodies activate CD3 signaling regardless of the presence or absence of TCR (Keppler et al., 2006, J. Leukoc. Biol. 79, 616-627). Thus, T-cells were activated with 1 μg/ml anti-CD3 and APC in the presence of 50 μg/ml gp41 TMD or gp41 TM11-19, and the proliferative responses were assayed. The TCRα Core Peptide (GLRILLLKV; SEQ ID NO: 37; TCRα CP) served as a control peptide.

TLR2 TMD = biological target: T1, TLR2 TMD (Homo sapiens, UniProt O60603); test: FRET between NBD labeled peptides and TLR2-Rho in LUVs; type: binding; details: 100 μM LUVs; peptide 0.4 μM; TLR2-Rho 0.025-0.8 μM
T1 construct: made in house; host or cells: chemical synthesis (Fmoc solid phase, Rink amide resin)
T1 sequence (O60603 589-609 limits assumed): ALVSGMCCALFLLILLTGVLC
Description: (§2) Thin films of PC were generated after dissolving the lipids in a 2:1 (v/v) mixture of CHCL3/MeOH and drying them under a stream of nitrogen gas while rotating them. The films were lyophilized overnight, sealed with argon gas to prevent oxidation of the lipids, and stored at −20° C. Before the experiments, films were suspended in the appropriate buffer and vortexed for 1.5 min. The lipid suspension underwent five cycles of freezing-thawing and extrusion through polycarbonate membranes with 1- and 0.1-μm diameter pores to create large unilamellar vesicles.
(§3) The FRET experiments were performed by using NBD and Rho labeled peptides. Fluorescence spectra were obtained at room temperature, with excitation set at 467 nm (10-nm slit) and emission scan at 500-600 nm (10-nm slits). […] Fluorescence spectra were obtained before and after addition of the Rho labeled peptide. The fluorescence values were corrected by subtracting the corresponding blank (buffer with the same vesicles concentration). […]
The energy transfer from the association of the gp41 TMD and the TLR2 TMD peptides was measured in the presence of 100 μM LUVs. […] As a control, the energy transfer between TLR2 and TAR1p/s (MVLGVFALLPLISGSL; SEQ ID NO:39) was measured. […]

[4] = test system: RAW264.7 macrophage cells; test: TNFα secretion from RAW264.7 macrophages (ELISA); type: cell-based; details: peptide 20 μM for 2 hours
Description: RAW264.7 macrophage cells were plated in a 96 well plate at a concentration of 20,000 cells per well and grown over-night in RPMI medium supplemented with 10% FBS and 1% Pen-Strep and 1% L-glutamine at 37 degrees with 5% CO2. The following day media was changed and the gp41 TMD peptide was added at a concentration of 20 μM—dissolved in DMSO and diluted 1:100. The cells were incubated in the presence of the peptide for 2 hours afterwards the media was removed and cells were washed twice with 100 μl of fresh media. Lipopolysaccharide (LPS) and Lipoteichoic acid (LTA) ligands were added for 5 hours (LPS was added at the concentration of 10 ng/ml and LTA added at 500 ng/ml; cells were grown at this time with 200 μl). After 5 hours 150 were taken for the measurement of TNFα by an ELISA kit.
RAW264.7 macrophages were grown in the presence of gp41 TMD peptides for 2 hours at a concentration of 20 μM. As controls, RAW264.7 macrophages were grown in the presence of GGG peptides or in the absence of peptides (FIG. 10, GGG and Control, respectively). Thereafter, the medium was washed twice and 500 ng/ml of LTA or 10 ng/ml of LPS was added for 5 hours. In order to evaluate TNFα levels an ELISA assay was performed. Results are shown normalized to the level of TNFα secretion induced by the ligands in the absence of peptides (FIG. 10 Control). The result is an average of three measurements.

TCRα CP peptide = biological target: T2, TCRα CP peptide (Mus musculus, UniProt P01849); test: FRET between TCRα CP-NBD and Rho labeled peptides in PC LUV; type: binding; details: acceptor-to-lipid ratio of 1:1000
T2 construct: TCRα CP peptide was labeled with NBD, as a donor fluorophore; made in house; host or cells: chemical synthesis (Fmoc solid phase, Rink amide resin)
Description: as §2, §3
Further investigations were performed to reveal whether gp41 TMD interacts solely with CD3 or perhaps it interacts with the TCRα TMD. […] Then, the fluorescence energy transfer (FRET) was measured between fluorescently labeled TCRα CP-NBD peptide and gp41 TM-Rho, TCRα CP-Rho or TAR/PS-Rho. […]

Substance | inhibition of T cell activation by PMA/ionomycin [1] | cell survival in culture versus PBS control [2] | percent of energy transfer with TLR2-Rho (TLR2 TMD) | further results
GLRILLLKV [TCRα CP, reference compound] | did not inhibit | – | – | –
GLVGLRIVF-NH2 [TM11-19, GLVGLRIVF] | – | same survival in culture | – | –
KKKLFIMIVGGLVGLRIVFAVLSIKKK [gp41 TMD] | did not inhibit | same survival in culture | over 60% | co-localization percentage with the CD3 molecules (CD3 molecules): 58.8%; inhibition of T-cell proliferation ([2]; MOG 35-55 peptide and APC, 5, 25 and 50 μg/ml peptide, 3 days, H3-thymidine uptake): dose dependent inhibition; inhibition of T-cell activation by mitogenic anti-CD3 antibodies [3]: inhibited; TNFα secretion in response to LPS ([4]; then 10 ng/ml LPS for 5 hours): reduces TNFα secretion; TNFα secretion in response to LTA ([4]; then 500 ng/ml LTA for 5 hours): inhibits TNFα secretion
MVLGVFALLPLISGSL [TAR1p/s, reference compound] | – | – | no energy transfer was detected | –
TCRα CP-Rho: TCRα CP peptide labeled with Rho-TAMRA as an acceptor fluorophore (GLRILLLKV-NH2; also: labeled with Rho-TAMRA, position not given here) | – | – | – | energy transfer from TCRα CP-NBD (TCRα CP peptide): ~37%
